The source of these data is ChEMBL document CHEMBL1671782, “Cationic surfactants derived from lysine: effects of their structure and charge type on antimicrobial and hemolytic activities” (J Med Chem, 2011).

≈ marks a conversion by molar mass, not a printed value. Calls of active or inactive are those of the source. The calls are words filed in the database; no cut-off is given here. Peptide text beside a SMILES is read from it. * marks the point of attachment. Lauroyl = CCCCCCCCCCCC(=O)*

Data set [1] is described as follows: in vitro. To be noted: human, erythrocytes.
Description: Toxicity in human erythrocytes assessed as hemolytic activity measured after 10 mins shaking
For data set [2], the system named is Micrococcus luteus. The data set can be described thus: Antimicrobial activity against Micrococcus luteus ATCC 9341 at 250 ug/ml at pH 7.4. The data set is classed as functional, organism-based.
Data set [3] has as its system Staphylococcus aureus. Nature of the data set: Antimicrobial activity against Staphylococcus aureus ATCC 25178 at 250 ug/ml at pH 7.4. The data set is classed as functional, organism-based.
The subject of data set [4] is Staphylococcus epidermidis. Nature of the data set: microbe, parasite or virus in culture. The note with it: ATCC 155-1, 24 h.
Description: Antimicrobial activity against Staphylococcus epidermidis ATCC 155-1 assessed as inhibition of visible growth after 24 hrs at pH 7.4
For data set [5], the system named is Bacillus subtilis. Nature of the data set: microbe, parasite or virus in culture. To be noted: ATCC 6633, 24 h.
Description: Antimicrobial activity against Bacillus subtilis ATCC 6633 assessed as inhibition of visible growth after 24 hrs at pH 7.4
Data set [6] relates to Klebsiella pneumoniae. The data set can be described thus: Antimicrobial activity against Klebsiella pneumoniae ATCC 9721 at 250 ug/ml at pH 7.4. The data set is classed as functional, organism-based.
Data set [7] has as its system Staphylococcus aureus. Nature of the data set: microbe, parasite or virus in culture. To be noted: ATCC 25178, 24 h.
Description: Antimicrobial activity against Staphylococcus aureus ATCC 25178 assessed as inhibition of visible growth after 24 hrs at pH 7.4
Data set [8] concerns Micrococcus luteus. The data set can be described thus: microbe, parasite or virus in culture. To be noted: ATCC 9341, 24 h.
Description: Antimicrobial activity against Micrococcus luteus ATCC 9341 assessed as inhibition of visible growth after 24 hrs at pH 7.4
For data set [9], the system named is Candida albicans. Nature of the data set: microbe, parasite or virus in culture. To be noted: ATCC 10231, 24 h.
Description: Antimicrobial activity against Candida albicans ATCC 10231 assessed as inhibition of visible growth after 24 hrs at pH 7.4
In data set [10] the test system is Escherichia coli. The data set can be described thus: microbe, parasite or virus in culture. The note with it: ATCC 27325, 24 h.
Description: (§1) Antimicrobial activity against Escherichia coli ATCC 27325 assessed as inhibition of visible growth after 24 hrs at pH 7.4
For data set [11], the system named is Pseudomonas aeruginosa. The data set can be described thus: microbe, parasite or virus in culture. To be noted: ATCC 9721, 24 h.
Description: Antimicrobial activity against Pseudomonas aeruginosa ATCC 9721 assessed as inhibition of visible growth after 24 hrs at pH 7.4
Data set [12] concerns Klebsiella pneumoniae. Nature of the data set: microbe, parasite or virus in culture. To be noted: ATCC 9721, 24 h.
Description: Antimicrobial activity against Klebsiella pneumoniae ATCC 9721 assessed as inhibition of visible growth after 24 hrs at pH 7.4
Data set [13] is described as follows: physchem.
Description: Dissociation constant, pKa of the compound
The test system of data set [14] is Escherichia coli. The note with it: ATCC 27325.
Description: as §1

Turning to `CCCCCCCCCCCC(=O)NCCCC[C@H](N)C(=O)NCCCCCCNC(=O)[C@@H](N)CCCCNC(=O)CCCCCCCCCCC`, the HC50 at 10 min in data set [1] turned out to be 116 µM. Besides, the outcome in data set [2], in [3] and in data set [6] was inactive. For the same compound, the MIC in data set [4] came to 38 µM (≈ 28 µg/mL); in data set [5], 308 µM (≈ 227 µg/mL).

In data set [1], `CCCCCCCCCCCC(=O)NCCCC[C@@H](C(=O)NCCCCCCNC(=O)[C@H](CCCCNC(=O)CCCCCCCCCCC)[N+](C)(C)C)[N+](C)(C)C` registered a concentration for 50% haemolysis (HC50) at 10 min of 11 µM. Further, the MIC in [7] stood at 67 µM; in data set [4], 16 µM; in [5] it was 16 µM; in data set [8], 67 µM; in [9], 67 µM. For the same compound, in data set [6], the outcome was inactive.

As for `CCCCCCCCCCCC(=O)N[C@@H](CCCCN)C(=O)OC`, the MIC in data set [10] was 331 µM (≈ 113 µg/mL); in data set [11], 331 µM (≈ 113 µg/mL); in [7], 166 µM (≈ 56.9 µg/mL); in data set [4], 83 µM (≈ 28.4 µg/mL); in data set [12], 331 µM (≈ 113 µg/mL); in data set [5], 331 µM (≈ 113 µg/mL). For the same compound, the MIC in [8] stood at 83 µM (≈ 28.4 µg/mL); in data set [9] it was 166 µM (≈ 56.9 µg/mL). Also, in [1], the HC50 at 10 min came out at 199 µM. Further, in data set [13], the pKa was 10.

Take `CCCCCCCCCCCC(=O)NCCCC[C@H](N)C(=O)OC`: the MIC in [10] turned out to be 166 µM (≈ 56.9 µg/mL); in data set [7], 331 µM (≈ 113 µg/mL); in [4] it was 166 µM (≈ 56.9 µg/mL); in data set [12], 331 µM (≈ 113 µg/mL); in data set [5] it was 331 µM (≈ 113 µg/mL); in data set [8] it was 331 µM (≈ 113 µg/mL). In data set [9], this compound yielded an MIC of 166 µM (≈ 56.9 µg/mL). Also, in data set [1], the 50% haemolytic concentration (HC50) at 10 min came out at 391 µM. For the same compound, the pKa in data set [13] came to 10.

For `CCCCCCCCCCCC(=O)N[C@@H](CCCNC(=N)N)C(=O)N[C@@H](CCCCN)C(=O)OC` (Lauroyl-Arg-Lys-OMe), the MIC stood at 218 µM (≈ 109 µg/mL) in data set [10]; 218 µM (≈ 109 µg/mL) in [11]; 54 µM (≈ 26.9 µg/mL) in data set [7]; 218 µM (≈ 109 µg/mL) in [4]; 218 µM (≈ 109 µg/mL) in data set [12]; 28 µM (≈ 14 µg/mL) in data set [5]. The MIC in data set [8] is 28 µM (≈ 14 µg/mL); in data set [9], 218 µM (≈ 109 µg/mL). The same compound came in with a 50% haemolytic concentration (HC50) at 10 min in data set [1] of 1350 µM. Further, the pKa in data set [13] stood at 10.

In turn, `CCCCCCCCCCCC(=O)NCCCC[C@H](N)C(=O)NCCCCNCCCNC(=O)[C@@H](N)CCCCNC(=O)CCCCCCCCCCC` had an HC50 at 10 min in [1] of 12 µM. In addition, the result in data set [3] and in data set [6] was inactive. The MIC is 142 µM (≈ 109 µg/mL) in [11]; 142 µM (≈ 109 µg/mL) in data set [4]; 142 µM (≈ 109 µg/mL) in [5]; 142 µM (≈ 109 µg/mL) in data set [8]; 285 µM (≈ 218 µg/mL) in data set [9].

With `CCCCCCCCCCCC(=O)N[C@@H](CCCCN)C(=O)NCCCCCCNC(=O)[C@H](CCCCN)NC(=O)CCCCCCCCCCC`, the 50% haemolytic concentration (HC50) at 10 min in data set [1] was 475 µM. Moreover, the result in data set [14] and in data set [6] was inactive. Besides, the MIC in [7] was 154 µM (≈ 114 µg/mL); in [4], 77 µM (≈ 56.8 µg/mL); in data set [5] it was 308 µM (≈ 227 µg/mL); in data set [8], 154 µM (≈ 114 µg/mL).

The compound `CCCCCCCCCCCC(=O)N[C@@H](CCCNC(=N)N)C(=O)NCCCC[C@H](N)C(=O)OC` yielded an HC50 at 10 min in data set [1] of 791 µM. Further, the MIC turned out to be 436 µM (≈ 217 µg/mL) in data set [7]; 436 µM (≈ 217 µg/mL) in data set [4]; 218 µM (≈ 109 µg/mL) in data set [5]; 436 µM (≈ 217 µg/mL) in data set [8]; 436 µM (≈ 217 µg/mL) in data set [9]. Moreover, the result in data set [6] was inactive. Also, the pKa in data set [13] is 10.
